Patent US12320800B2, “High-throughput automation of organoids for identifying therapeutic strategies” (UNIVERSITY OF WASHINGTON, priority 2018, dated 2025)
Converted amounts (≈) assume the structure as drawn.

Key:
[1] = cited from earlier work
[2] = tested on: late-stage PKD organoids; assay: Regression of pre-existing cysts in late-stage PKD organoids; assay type: cell-based, human; conditions: one week
Text: Reduction of pre-existing cysts would be a major advantage over tolvaptan. In an acute setting, EMD could be used to reduce pain from swollen cysts, and in a chronic setting it could potentially reverse the course of disease.

[3] = canines, orally administered, optimized for dissolution; cited from earlier work
[4] = tested on: PKD1RC/RC mouse; assay: EMD pilot trial in PKD1RC/RC mouse; assay type: in vivo; conditions: for survival, distress and adverse effects: 5 mg/kg
Method: Efficacy In Vivo: To reproduce EMD's effects in an animal model, small pilot trial was performed in the PKD1RC/RC mouse. Animals at five months of age, a time point where cysts have already formed, were injected intraperitoneally with EMD four times over 2.5 weeks (FIG. 24A). EMD was dissolved in 400 μL PBS solution at 5 mg/kg (˜25 μM in mouse blood).
These animals were sacrificed and analyzed their kidney tissue.

[5] = molecular target: myosin motor domain; conditions: allosteric pocket of the myosin motor domain; cited from earlier work
[6] = molecular target: β-cardiac myosin (Homo sapiens, UniProt P12883); conditions: read-out: AC50, actomyosin ATPase activity; cited from earlier work
Sequence of β-cardiac myosin (P12883 whole entry): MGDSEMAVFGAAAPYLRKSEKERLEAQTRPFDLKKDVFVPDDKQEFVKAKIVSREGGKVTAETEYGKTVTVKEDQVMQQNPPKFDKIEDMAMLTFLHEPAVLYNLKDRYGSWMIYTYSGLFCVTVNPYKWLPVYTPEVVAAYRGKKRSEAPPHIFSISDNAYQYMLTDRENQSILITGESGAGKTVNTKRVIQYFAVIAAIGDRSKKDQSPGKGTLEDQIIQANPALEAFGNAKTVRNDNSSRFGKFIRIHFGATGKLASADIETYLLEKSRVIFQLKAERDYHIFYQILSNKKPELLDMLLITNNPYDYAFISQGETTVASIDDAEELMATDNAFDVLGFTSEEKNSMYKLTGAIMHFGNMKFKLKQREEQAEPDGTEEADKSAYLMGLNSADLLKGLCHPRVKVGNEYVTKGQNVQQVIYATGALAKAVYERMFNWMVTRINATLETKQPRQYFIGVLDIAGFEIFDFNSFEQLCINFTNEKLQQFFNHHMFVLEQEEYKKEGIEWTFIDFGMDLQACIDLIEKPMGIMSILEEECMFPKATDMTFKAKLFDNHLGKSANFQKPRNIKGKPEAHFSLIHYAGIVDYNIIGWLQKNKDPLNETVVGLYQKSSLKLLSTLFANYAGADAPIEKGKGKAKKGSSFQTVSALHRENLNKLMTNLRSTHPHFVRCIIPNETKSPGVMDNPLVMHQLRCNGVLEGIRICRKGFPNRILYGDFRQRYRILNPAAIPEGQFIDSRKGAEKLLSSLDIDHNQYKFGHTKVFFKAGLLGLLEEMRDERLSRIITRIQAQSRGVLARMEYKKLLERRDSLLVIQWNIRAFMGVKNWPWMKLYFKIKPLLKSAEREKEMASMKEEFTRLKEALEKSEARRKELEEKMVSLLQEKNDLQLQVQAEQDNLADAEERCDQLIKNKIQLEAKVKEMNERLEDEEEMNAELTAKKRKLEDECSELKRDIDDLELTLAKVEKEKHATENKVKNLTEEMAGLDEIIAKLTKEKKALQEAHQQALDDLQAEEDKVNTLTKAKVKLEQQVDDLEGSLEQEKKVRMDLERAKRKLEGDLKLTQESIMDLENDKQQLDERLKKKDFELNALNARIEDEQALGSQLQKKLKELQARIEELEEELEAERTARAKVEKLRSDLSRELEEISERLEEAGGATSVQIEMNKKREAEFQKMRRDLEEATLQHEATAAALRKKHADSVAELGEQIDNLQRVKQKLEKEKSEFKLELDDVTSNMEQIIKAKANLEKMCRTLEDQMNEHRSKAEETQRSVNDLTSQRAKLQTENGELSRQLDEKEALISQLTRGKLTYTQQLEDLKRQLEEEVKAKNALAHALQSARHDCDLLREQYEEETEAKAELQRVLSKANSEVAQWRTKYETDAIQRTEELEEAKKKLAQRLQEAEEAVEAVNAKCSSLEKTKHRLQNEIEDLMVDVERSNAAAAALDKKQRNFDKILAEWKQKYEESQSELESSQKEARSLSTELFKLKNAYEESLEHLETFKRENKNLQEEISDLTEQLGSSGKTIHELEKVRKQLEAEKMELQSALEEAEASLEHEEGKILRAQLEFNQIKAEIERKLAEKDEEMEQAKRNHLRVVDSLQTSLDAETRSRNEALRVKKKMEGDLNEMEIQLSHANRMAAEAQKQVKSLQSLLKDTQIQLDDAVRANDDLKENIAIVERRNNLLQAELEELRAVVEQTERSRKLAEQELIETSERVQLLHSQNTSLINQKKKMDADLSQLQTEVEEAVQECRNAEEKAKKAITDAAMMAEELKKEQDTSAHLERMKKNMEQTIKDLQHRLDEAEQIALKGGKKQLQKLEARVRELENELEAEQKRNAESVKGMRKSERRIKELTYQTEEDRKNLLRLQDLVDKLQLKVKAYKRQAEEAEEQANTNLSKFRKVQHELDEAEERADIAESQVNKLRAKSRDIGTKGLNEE
Sequence of β-cardiac myosin (P08590 whole entry partner): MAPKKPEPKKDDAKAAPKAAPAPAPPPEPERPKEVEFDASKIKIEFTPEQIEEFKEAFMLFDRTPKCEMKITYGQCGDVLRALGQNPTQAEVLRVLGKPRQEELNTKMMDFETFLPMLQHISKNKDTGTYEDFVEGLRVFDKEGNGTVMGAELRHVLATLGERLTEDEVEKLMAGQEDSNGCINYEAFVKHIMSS

[7] = tested on: PKD organoids; assay: Live-dead viability analysis of PKD organoids after EMD treatment; assay type: cell-based, human; conditions: 10 μM for two weeks
Method: To assess potential toxicity in human organoids, morphology was examined by phase-contrast microscopy during the treatment time course and performed a live-dead analysis of organoids at the endpoint of treatment (10 μM EMD for two weeks).

[8] = tested on: PKD1−/− and PKD2−/− mutant organoids; assay: Prophylactic effect of myosin activators on cyst formation in PKD organoids in suspension; assay type: cell-based, human
Text: Cyst formation. In adherent cultures (untreated), ‘cysts’ were identified as large, balloon-like, translucent structures that swayed in response to agitation. Flat rings and dilated tubules were not counted as cysts and occasionally appeared even in non-PKD controls. […] Wells were imaged using a Nikon TiE inverted wide-field microscope and cysts were quantified using ImageJ cell counter. To generate large cysts in suspension, adherent organoids were microdissected with a 23-gauge syringe needle from 24-well plates on an inverted phase-contrast microscope, and carefully transferred using a transfer pipette into a low-adhesion 6-well plate (Corning) containing 2 ml RB. The organoids were isolated on the twenty-first day of differentiation, before cysts formed. RB media was changed by gravity every three days, and cystogenesis was assessed at two weeks after replating.
EMD was efficient at rescuing cyst formation at the lowest dose tested (3 μM) and worked in both PKD1^−/− and PKD2^−/− mutant organoids.

[9] = tested on: skeletal muscle myosin; conditions: read-out: AC50, actomyosin ATPase activity; cited from earlier work
[10] = tested on: non-cardiac myosin II; conditions: cited from earlier work
[11] = tested on: liver cells; conditions: in vitro; cited from earlier work
[12] = tested on: myosin; conditions: Table 5 listing; cited from earlier work
[13] = 5 mg/kg intraperitoneally, four times over 2.5 weeks
[14] = expected value, WT control or EMD, Aim 1
[15] = high dose (5 mg/kg) applied repeatedly

COc1ccc(C(=O)N2CCCc3cc(C4=NNC(=O)SC4C)ccc32)cc1OC (single isomer, unassigned; (+)) [EMD, (+)-5-(1-(3,4-Dimethoxybenzoyl)-1,2,3,4-tetrahydroquinolin-6-yl)-6-methyl-3,6-dihydro-2H-1,3,4-thiadiazin-2-one]
aqueous solubility [1]: 5 µg/mL (≈ 11.8 µM)
size of pre-formed cysts ([2]; late-stage PKD organoids (day 37), 5 μM): acute reduction in the size of pre-formed cysts
toxicity at these doses ([2]; late-stage PKD organoids): No overt toxicity
Tmax [3]: ~2.5 h
average Cmax [3]: ~40 ng/mL
blood urea nitrogen levels (BUN) [4, 13]: reduced
kidney weight [4, 13]: reduced
superficial (renal cortical) cysts by gross morphology ([4]; 5 mg/kg intraperitoneally, four times over 2.5 weeks, five months of age): noticeably reduced superficial (renal cortical) cysts
BUN [4, 14]: 20 ± 5 mg/dL
kidney weight [4, 14]: 0.30 ± 0.1 g
alpha-SMA+ area (%) ([4]; expected value, WT control or EMD, Aim 2): 25 ± 4%
fibrosis in the kidneys [4, 15]: No fibrosis was observed
survival, distress and adverse effects [4, 15]: no adverse effects or mortality
survival, distress and adverse effects ([4]; mouse, in vivo): all animals survived, and none showed any signs of distress
acute tubular necrosis, proximal tubules (LTL+) ([4]; treated kidneys): no evidence of acute tubular necrosis
cyst size in kidney sections ([4]; treated kidneys): smaller cysts
expression of smooth muscle alpha-actin ([4]; treated kidneys): reduced expression
Kd [5]: 7.3 µM
AC50 [6]: 7 µM
toxicity (phase-contrast morphology and live-dead analysis) [7]: no significant toxicity
lowest dose tested, efficient at rescuing cyst formation ([8]; PKD1−/− and PKD2−/− mutant organoids): 3 µM
Cyst diameter (mm) [8, 14]: 0.12 ± 0.04 mm
Cystic organoids (%) [8, 14]: 15 ± 6%
formation and size of resultant cysts ([8]; pre-cystic organoids in suspension, versus untreated controls): effectively reduced the formation and size of the resultant cysts
efficacy on cysts in the presence of blebbistatin ([8]; with blebbistatin): effective even in the presence of blebbistatin
AC50 [9]: 15.1 µM
increase of non-cardiac myosin II activity [10]: three-fold
metabolism by liver cells [11]: metabolized by liver cells into demethylated and/or hydroxylated forms by CYP-dependent mechanisms
effect [12]: ↑ myosin
